Assay results taken from ChEMBL document CHEMBL1123575, “In search of the digitalis replacement” (J Med Chem, 1987).
Several values for one entry are separate records, joined by “and”; a condition that tells them apart may be missing. Equal entries are not always repeated.

Experiments:
[1] = biological target: Beta-1 adrenergic receptor (Homo sapiens) (UniProt P08588)
Description: Positive inotropic effects by direct or indirect beta-1 adrenergic receptor activation.

[2] = biological target: T1, Phosphodiesterase; PDE3 & PDE4 (Homo sapiens) (UniProt P27815+Q14432+Q08499+Q07343+Q13370+Q08493); test: Inhibition of cAMP Phosphodiesterase enzyme.; format: protein assay
[3] = biological target: T1, Phosphodiesterase; PDE3 & PDE4 (Homo sapiens); test: Compound was evaluated for its inotropic activity by the inhibition of cAMP Phosphodiesterase enzyme; format: protein assay
[4] = biological target: Beta-1 adrenergic receptor (Homo sapiens) (UniProt P08588); test: Compound was tested for its inotropic effect by activation of beta-1 adrenergic receptor directly or indirectly; activity values are 73,75
[5] = Compound was evaluated for its inotropic activity by its ability to increase Myofibrillar Ca++ sensitivity.; format: functional
[6] = biological target: Beta-1 adrenergic receptor (Homo sapiens) (UniProt P08588); test: Compound was tested for its inotropic effect by activation of beta-1 adrenergic receptor directly or indirectly; activity values are 70,71

Beta-1 adrenergic receptor (Homo sapiens), sequence (P08588 whole entry, looked up): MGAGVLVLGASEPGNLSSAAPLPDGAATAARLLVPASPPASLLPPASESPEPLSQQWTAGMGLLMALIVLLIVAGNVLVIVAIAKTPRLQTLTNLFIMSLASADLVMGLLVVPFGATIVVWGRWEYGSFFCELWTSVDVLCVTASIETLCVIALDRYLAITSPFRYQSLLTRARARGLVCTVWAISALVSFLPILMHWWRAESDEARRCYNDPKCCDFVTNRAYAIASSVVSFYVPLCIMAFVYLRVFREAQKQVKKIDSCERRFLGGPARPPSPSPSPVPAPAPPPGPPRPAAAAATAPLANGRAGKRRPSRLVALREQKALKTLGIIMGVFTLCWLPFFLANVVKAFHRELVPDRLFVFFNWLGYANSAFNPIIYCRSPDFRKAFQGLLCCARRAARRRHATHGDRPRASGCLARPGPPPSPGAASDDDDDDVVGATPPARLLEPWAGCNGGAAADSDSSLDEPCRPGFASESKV

| Structure (SMILES) | Inotropic effect [1] | PDE inhibition [2] | also measured |
| --- | --- | --- | --- |
| CCCCNC(=O)NC1CCN(c2ncnc3cc(OC)c(OC)cc23)CC1 | 85 | 84 | – |
| COc1ccc(C(=O)N2CCN(c3ccc4c(c3)CCC(=O)N4)CC2)cc1OC | – | 87 | – |
| Nc1cc(-c2ccncc2)c[nH]c1=O | 57 | – | PDE inhibition [3]: 57 and 56 and 24 |
| O=C1CCC(c2ccc(-n3ccnc3)cc2)=NN1 | 78 | 76 | – |
| CC1CC(O)=NN=C1c1ccc(-n2ccnc2)cc1 (stereo not given) | – | 76 | – |
| CCc1nc(O)ncc1-c1ccc(O)cc1 | 67 | 67 | – |
| CC(CCc1ccc(O)cc1)NCCc1ccc(O)c(O)c1 (stereo not given) | 26 | – | – |
| COc1ccc2[nH]c(=O)nc(C)c2c1OC | – | 91 | – |
| CSc1ccc(C(=O)c2[nH]c(=O)[nH]c2C)cc1 | – | 72 | Inotropic effect [4]: 75 |
| Cc1nc(O)c(N)cc1-c1ccccc1 | – | 62 | Mechanistic reference [5]: 62 |
| CNCCc1ccc(OC(=O)C(C)C)c(OC(=O)C(C)C)c1 | 38 | – | – |
| C[C@@H]1C(=O)NC2=Nc3cccc(Cl)c3CN21 | 89 | 88 | – |
| COc1ccc(-c2nc3cc(C4=NNC(=O)CC4C)ccc3[nH]2)cc1 (stereo not given) | 82 | – | PDE inhibition [3]: 81 and 80 |
| CCc1[nH]c(=O)[nH]c1C(=O)c1ccncc1 | – | 68 | Inotropic effect [6]: 71 |
| O=C1CCC(c2ccc3c(c2)NC(=O)CC3)=NN1 | – | 83 | – |
| OC(CNCCC1c2ccccc2Oc2ccccc21)COc1ccccc1 (stereo not given) | 45 and 44 | – | – |
| CC(=O)Nc1ccc(-c2cnc(O)cn2)cc1 | – | 63 | – |
| CN(C(=O)CCCOc1ccc2c(c1)CN1CC(=O)NC1=N2)C1CCCCC1 | – | 90 | – |
| Oc1ccc(CCNCCCCCCNCCc2ccccc2)cc1O | 36 | – | – |
| Cc1nc(=O)c(C#N)c(NCc2cccnc2)[nH]1 | 66 | – | PDE inhibition [3]: 64 and 65 |
| C[C@H](CCc1ccc(O)cc1)NC[C@H](O)c1ccc(O)cc1 | 39 | – | – |
| Cc1[nH]c(=O)c(C#N)cc1-c1ccncc1 | – | 58 | – |
| CC(C)NC[C@H](O)COc1ccc(O)cc1 | 35 and 34 | – | – |
| CCNC(=O)OC1CCN(c2nncc3cc(OC)c(OC)cc23)CC1 | 86 | 86 | – |
